Measured values: US9879006B2, “Azaindole acetic acid derivatives and their use as prostaglandin D2 receptor modulators” (IDORSIA PHARMACEUTICALS LTD, priority 2014, dated 2018)

Tests used:
hCRTH2 receptor [1] = molecular target: T1, hCRTH2 receptor (Homo sapiens, UniProt Q9Y5Y4); test: Radioligand displacement assay in presence of human serum albumin (HSA); details: displacement of 3H-PGD2, Binding-Buffer with 0.5% human serum albumin instead of 0.1% BSA
T1 construct: expressed in transfected cells; host or cells: HEK293 (recombinant HEK293-hCRTH2), membrane fragments
T1 sequence (Q9Y5Y4 1-395): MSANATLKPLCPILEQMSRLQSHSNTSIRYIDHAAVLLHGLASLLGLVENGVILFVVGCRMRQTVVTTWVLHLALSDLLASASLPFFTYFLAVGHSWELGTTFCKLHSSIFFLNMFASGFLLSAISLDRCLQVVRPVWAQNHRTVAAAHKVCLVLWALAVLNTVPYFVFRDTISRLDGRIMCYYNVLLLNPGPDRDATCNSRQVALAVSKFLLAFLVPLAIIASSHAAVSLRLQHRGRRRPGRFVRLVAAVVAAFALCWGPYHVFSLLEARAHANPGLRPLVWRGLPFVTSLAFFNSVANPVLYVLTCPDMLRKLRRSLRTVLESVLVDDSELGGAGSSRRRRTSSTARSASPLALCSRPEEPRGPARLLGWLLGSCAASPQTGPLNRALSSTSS
Method: (§1) First, recombinant HEK293-hCRTH2 cells were detached from culture plates into 5 ml buffer A/plate (Buffer A: 5 mM Tris, 1 mM MgCl2-6H2O pH=7.4) using a rubber policeman. Cells were then transferred into centrifugation tubes and centrifuged for 5 min at 400 g. The cell pellet was resuspended in the same buffer and tubes were frozen at 80° C. Cells were thawed and membrane fragments were generated by homogenization using a polytron homogenizer (30 seconds). The membrane fragments were then centrifuged at 3000 g for 20 minutes and resuspended in buffer C (Buffer C: 75 mM Tris, 25 mM MgCl2, 250 mM Saccharose pH 7.4). Aliquots of membrane fragments were stored at −20° C.
(§2) Binding assay was performed in a final assay volume of 250 μl. First, 25 μl of test compound, previously diluted in Binding-Buffer (Binding-Buffer: 50 mM Tris-Base, 100 mM NaCl, 1 mM EDTA, 0.1% BSA (protease free), 0.01% NaN3, 10 mM MnCl2 pH 7.0) was placed into each well. After addition of 75 μl Binding-Buffer, 50 μl of the radioligand ^3H-PGD2 (at 2.5 nM (220.000 dpm/well) from ANAWA ART0662) was added to each well. Binding assay was started by addition of 100 μl CRTH2 membrane fragments, reaching a final concentration of 20 μg/well. For non-specific binding, PGD2 was added to the reaction mixture to […] final concentration. This assay mix was incubated for 90 minutes at room temperature and then filtered through a GF/C filter 96-well plate which was pre-soaked for 3 hours in 0.5% polyethyleneimine (PEI). The filter-wells were washed three times with ice cold Binding-Buffer. Then, 40 μl of Microscint-40 (Packard) was added to each well and the retained radioactivity quantified in a Topcount (Packard).
Radioligand Displacement Assay-Human Serum Albumin (HSA):
Radioligand displacement assay in presence of human serum albumin (HSA) was performed as described above, with following modifications. Binding-Buffer-HSA: Binding-buffer+0.5% Sigma Albumin from Human serum A1887 (instead of 0.1% BSA). A volume of 25 μl test compound, previously diluted in Binding-Buffer-HSA was placed into each well. After addition of 75 μl Binding-Buffer-HSA, 50 μl of ^3H-PGD2 (at 2.5 nM (220.000 dpm/well) from ANAWA ART0662) was added to each well. Remaining protocol was identical as described above.

[2] = system: eosinophils (PGD2-induced shape change); test: Eosinophil shape change assay with human plasma; type: cell-based; details: human polymorphonuclear cells, 50% human plasma, activated with PGD2 100 nM, flow cytometry forward-scatter
Method: Eosinophil Shape Change Assay with Human Plasma
After obtaining informed consent, blood samples were drawn by venipuncture according to the protocol approved by the ethics committee of Basel, Switzerland. Polymorphonuclear leukocytes (containing eosinophils, basophils and neutrophils) were isolated using the Polymorphprep™ method (Axis-Shield). In brief, anticoagulated whole blood was layered onto a Polymorphprep gradient (density 1.113 g/ml) and centrifuged at 500 g for 30 min. The polymorphonuclear cell fraction was harvested and depleted for erythrocytes by hypotonic saline lysis.
The polymorphonuclear cells were resuspended in assay buffer (1×PBS with Ca^2+/Mg^2+ supplemented with 0.1% BSA, 10 mM HEPES, and 10 mM Glucose, pH 7.4) at 5×10^6 cells/ml and stained with anti-CD49d-APC ((APC=Allophycocyanin) for 1 hour at RT. Test compounds, at various concentrations, were preincubated 10 min in human plasma (anticoagulated with a thrombin inhibitor). Then, human plasma was added to the polymorphonuclear cells to 50% of final assay volume with polymorphonuclear cells at 4×10^6 cells/ml. After incubation for 10 minutes at 37° C., the polymorphonuclear cells were activated for 5 min at 37° C. by addition of PGD2 at 100 nM final concentration. Activation was stopped by addition of 0.5 ml paraformaldehyde (1%).
Immediately after fixation with paraformaldehyde, the samples were analyzed by FACSCanto flow cytometer (BD Biosciences) and target cells were identified by their forward-scatter (FSC) and side-scatter (SSC) characteristics. Eosinophils were identified by the anti-CD49d-APC signal and their characteristic side-scatter (SSC) profile. Shape change responses, indicative of eosinophil activation, were quantified as the percent of cells with an increased forward-scatter.

hCRTH2 receptor [3] = molecular target: T1, hCRTH2 receptor; test: hCRTH2 receptor membranes radioligand displacement assay; details: displacement of 3H-PGD2 (2.5 nM), HEK293-hCRTH2 membrane fragments, Binding-Buffer with 0.1% BSA
Method: Preparation of hCRTH2 Receptor Membranes and Radioligand Displacement Assay:
as §1, §2

In the case of O=C(O)Cn1c2c(c3nc(F)ccc31)C[C@@H](Nc1ncc(Cl)cn1)CC2 [Example 8, (S)-2-(8-((5-chloropyrimidin-2-yl)amino)-2-fluoro-6,7,8,9-tetrahydro-5H-pyrido[3,2-b]indol-5-yl)acetic acid], the IC50 (hCRTH2 receptor [1]) is reported as 22 nM, the IC50 [2] is reported as 32 nM and the IC50 (hCRTH2 receptor [3]) is reported as 19 nM.
